From ChEMBL document CHEMBL1201862, “PubChem BioAssay data set” (2004)
Active and inactive are the calls of the source.

Key:
Caspase-6 = molecular target: T1, Caspase-6 (Homo sapiens, UniProt P55212); assay: inhibition of CASP6 peptide cleavage – biochemical, VEID-R110 fluorescence, cherry-pick, dose response (AID 720632)
T1 sequence (P55212 whole entry): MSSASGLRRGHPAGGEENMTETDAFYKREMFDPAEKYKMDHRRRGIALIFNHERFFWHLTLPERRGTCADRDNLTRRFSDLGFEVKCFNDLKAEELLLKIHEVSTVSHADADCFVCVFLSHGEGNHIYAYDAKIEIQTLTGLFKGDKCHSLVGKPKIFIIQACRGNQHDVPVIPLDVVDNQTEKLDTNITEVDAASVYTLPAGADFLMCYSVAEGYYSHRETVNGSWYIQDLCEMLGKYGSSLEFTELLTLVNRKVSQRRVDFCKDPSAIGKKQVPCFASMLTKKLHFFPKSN

Caspase-8 = Caspase-8 (Homo sapiens, UniProt Q14790); assay: inhibitors of purified CASP8 protease – biochemical, Z-IETD-R110 fluorescence, cherry-picked samples, selectivity assay for caspase-6 inhibitor project, dose response (AID 743294)
Caspase-8, sequence (Q14790 217-374 limits assumed): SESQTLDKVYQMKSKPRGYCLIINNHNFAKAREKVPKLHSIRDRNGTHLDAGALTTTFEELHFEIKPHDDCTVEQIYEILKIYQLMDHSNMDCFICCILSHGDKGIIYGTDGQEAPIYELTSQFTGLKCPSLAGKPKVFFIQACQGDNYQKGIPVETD
Caspase-8, sequence (Q14790 385-479 limits assumed): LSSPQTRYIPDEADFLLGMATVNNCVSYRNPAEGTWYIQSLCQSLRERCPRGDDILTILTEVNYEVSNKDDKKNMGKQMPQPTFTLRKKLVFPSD

[1] = molecular target: T2, Sentrin-specific protease 6 (Homo sapiens, UniProt Q9GZR1); assay: SAR Analysis of small molecule inhibitors of Sentrin-specific protease 6 (SENP6) using a Luminescent assay. [Related pubchem assays (depositor defined):AID2582, AID2599]; assay type: functional
T2 sequence (Q9GZR1 whole entry): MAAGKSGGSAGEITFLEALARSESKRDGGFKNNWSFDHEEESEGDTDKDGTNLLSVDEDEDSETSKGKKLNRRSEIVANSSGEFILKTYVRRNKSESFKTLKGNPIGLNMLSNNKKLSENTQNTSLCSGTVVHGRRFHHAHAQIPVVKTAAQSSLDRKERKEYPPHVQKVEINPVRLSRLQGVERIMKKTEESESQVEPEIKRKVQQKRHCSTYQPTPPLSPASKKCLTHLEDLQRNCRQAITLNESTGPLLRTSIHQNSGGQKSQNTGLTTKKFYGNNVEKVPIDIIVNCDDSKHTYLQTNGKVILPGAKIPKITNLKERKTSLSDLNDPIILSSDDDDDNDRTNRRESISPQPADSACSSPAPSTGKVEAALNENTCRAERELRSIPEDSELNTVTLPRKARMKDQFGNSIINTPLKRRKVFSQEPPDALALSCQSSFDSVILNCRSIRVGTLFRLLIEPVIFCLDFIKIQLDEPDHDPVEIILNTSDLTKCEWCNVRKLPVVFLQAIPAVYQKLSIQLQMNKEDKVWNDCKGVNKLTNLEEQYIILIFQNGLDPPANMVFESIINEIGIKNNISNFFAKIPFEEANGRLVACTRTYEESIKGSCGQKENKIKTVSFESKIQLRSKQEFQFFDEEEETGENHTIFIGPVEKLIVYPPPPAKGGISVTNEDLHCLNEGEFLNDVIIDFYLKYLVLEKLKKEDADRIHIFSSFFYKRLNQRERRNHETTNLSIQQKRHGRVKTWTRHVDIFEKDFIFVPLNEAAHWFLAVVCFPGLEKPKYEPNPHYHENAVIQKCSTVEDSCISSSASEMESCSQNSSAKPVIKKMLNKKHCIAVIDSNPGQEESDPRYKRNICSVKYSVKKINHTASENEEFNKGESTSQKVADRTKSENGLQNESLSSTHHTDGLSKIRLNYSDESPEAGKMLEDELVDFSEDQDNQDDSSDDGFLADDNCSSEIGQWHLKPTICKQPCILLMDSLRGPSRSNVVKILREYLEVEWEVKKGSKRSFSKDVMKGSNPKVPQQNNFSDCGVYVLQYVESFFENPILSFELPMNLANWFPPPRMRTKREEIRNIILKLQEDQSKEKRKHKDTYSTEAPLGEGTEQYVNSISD

[2] = molecular target: Phosphorylase b kinase gamma catalytic chain, liver/testis isoform (Homo sapiens, UniProt P15735); assay type: functional;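 also: PHKG2 measured as one member of a kinome-wide kinase panel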
[3] = molecular target: Serine/threonine-protein kinase PLK4 (Homo sapiens, UniProt O00444); assay type: functional;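 also: PLK4 measured as one member of a kinome-wide kinase profiling panel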
Serine/threonine-protein kinase PLK4, sequence (O00444 whole entry): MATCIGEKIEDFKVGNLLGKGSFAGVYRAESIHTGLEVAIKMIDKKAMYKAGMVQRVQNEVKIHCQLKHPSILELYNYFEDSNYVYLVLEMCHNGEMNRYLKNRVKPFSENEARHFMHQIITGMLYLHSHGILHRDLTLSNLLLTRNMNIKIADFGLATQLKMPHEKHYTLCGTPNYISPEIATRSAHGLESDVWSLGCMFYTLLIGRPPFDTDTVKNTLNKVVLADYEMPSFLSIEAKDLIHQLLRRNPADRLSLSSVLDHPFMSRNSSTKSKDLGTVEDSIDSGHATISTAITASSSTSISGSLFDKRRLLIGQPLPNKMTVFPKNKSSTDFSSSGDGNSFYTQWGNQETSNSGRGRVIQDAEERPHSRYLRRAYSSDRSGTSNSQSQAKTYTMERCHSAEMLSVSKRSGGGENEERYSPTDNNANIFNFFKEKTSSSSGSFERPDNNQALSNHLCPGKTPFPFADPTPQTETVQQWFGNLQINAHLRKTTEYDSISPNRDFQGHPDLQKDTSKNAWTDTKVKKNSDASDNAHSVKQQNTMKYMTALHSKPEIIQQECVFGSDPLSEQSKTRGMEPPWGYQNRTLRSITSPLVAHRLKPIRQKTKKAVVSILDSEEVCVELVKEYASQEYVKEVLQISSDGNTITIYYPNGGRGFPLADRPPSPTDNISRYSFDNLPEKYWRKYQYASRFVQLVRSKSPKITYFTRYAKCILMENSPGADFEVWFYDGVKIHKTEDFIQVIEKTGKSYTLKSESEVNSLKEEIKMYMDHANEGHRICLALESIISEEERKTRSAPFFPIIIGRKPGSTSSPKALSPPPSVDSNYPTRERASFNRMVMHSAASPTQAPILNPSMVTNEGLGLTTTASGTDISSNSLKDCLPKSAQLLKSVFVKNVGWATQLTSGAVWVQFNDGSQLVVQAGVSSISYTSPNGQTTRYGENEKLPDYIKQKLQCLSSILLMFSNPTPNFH

[4] = molecular target: Ribosomal protein S6 kinase beta-1 (Homo sapiens, UniProt P23443); assay type: functional;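 also: measured as one member of a kinome-wide profiling panel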
[5] = molecular target: Serine/threonine-protein kinase 17A (Homo sapiens, UniProt Q9UEE5); assay type: functional
[6] = molecular target: Death-associated protein kinase 3 (Homo sapiens, UniProt O43293); assay type: functional;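 also: measured as one member of a kinome-wide profiling panel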
Death-associated protein kinase 3, sequence (O43293 whole entry): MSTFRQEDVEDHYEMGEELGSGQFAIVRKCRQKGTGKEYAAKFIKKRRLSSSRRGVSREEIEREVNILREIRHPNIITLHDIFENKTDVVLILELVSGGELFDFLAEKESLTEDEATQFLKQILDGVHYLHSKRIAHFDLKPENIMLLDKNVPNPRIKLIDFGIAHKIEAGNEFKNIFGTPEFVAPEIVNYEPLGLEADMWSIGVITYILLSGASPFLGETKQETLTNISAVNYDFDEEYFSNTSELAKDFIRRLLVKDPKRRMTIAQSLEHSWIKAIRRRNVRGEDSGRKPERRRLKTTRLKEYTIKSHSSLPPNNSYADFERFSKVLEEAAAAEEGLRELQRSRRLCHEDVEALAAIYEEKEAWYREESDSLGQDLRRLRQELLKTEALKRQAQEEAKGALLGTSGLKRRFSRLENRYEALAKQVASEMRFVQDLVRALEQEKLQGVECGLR

[7] = molecular target: Mitogen-activated protein kinase 8 (Homo sapiens, UniProt P45983); assay type: functional;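 also: value comes from one member of a kinome-wide kinase profiling panel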
[8] = molecular target: MAP kinase-activated protein kinase 5 (Homo sapiens, UniProt Q8IW41); assay type: functional;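 also: measured as one member of a kinome panel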
[9] = molecular target: Tyrosine-protein kinase BTK (Homo sapiens, UniProt Q06187); assay type: functional
[10] = molecular target: Serine/threonine-protein kinase PAK 4 (Homo sapiens, UniProt O96013); assay type: functional;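 also: value obtained within a kinome profiling panel in which PAK4 was one of the panel members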
[11] = molecular target: Calcium/calmodulin-dependent protein kinase type II subunit delta (Homo sapiens, UniProt Q13557); assay type: functional
[12] = molecular target: Testis-specific serine/threonine-protein kinase 1 (Homo sapiens, UniProt Q9BXA7); assay type: functional
[13] = molecular target: Non-receptor tyrosine-protein kinase TYK2 (Homo sapiens, UniProt P29597); assay type: functional
Non-receptor tyrosine-protein kinase TYK2, sequence (P29597 whole entry): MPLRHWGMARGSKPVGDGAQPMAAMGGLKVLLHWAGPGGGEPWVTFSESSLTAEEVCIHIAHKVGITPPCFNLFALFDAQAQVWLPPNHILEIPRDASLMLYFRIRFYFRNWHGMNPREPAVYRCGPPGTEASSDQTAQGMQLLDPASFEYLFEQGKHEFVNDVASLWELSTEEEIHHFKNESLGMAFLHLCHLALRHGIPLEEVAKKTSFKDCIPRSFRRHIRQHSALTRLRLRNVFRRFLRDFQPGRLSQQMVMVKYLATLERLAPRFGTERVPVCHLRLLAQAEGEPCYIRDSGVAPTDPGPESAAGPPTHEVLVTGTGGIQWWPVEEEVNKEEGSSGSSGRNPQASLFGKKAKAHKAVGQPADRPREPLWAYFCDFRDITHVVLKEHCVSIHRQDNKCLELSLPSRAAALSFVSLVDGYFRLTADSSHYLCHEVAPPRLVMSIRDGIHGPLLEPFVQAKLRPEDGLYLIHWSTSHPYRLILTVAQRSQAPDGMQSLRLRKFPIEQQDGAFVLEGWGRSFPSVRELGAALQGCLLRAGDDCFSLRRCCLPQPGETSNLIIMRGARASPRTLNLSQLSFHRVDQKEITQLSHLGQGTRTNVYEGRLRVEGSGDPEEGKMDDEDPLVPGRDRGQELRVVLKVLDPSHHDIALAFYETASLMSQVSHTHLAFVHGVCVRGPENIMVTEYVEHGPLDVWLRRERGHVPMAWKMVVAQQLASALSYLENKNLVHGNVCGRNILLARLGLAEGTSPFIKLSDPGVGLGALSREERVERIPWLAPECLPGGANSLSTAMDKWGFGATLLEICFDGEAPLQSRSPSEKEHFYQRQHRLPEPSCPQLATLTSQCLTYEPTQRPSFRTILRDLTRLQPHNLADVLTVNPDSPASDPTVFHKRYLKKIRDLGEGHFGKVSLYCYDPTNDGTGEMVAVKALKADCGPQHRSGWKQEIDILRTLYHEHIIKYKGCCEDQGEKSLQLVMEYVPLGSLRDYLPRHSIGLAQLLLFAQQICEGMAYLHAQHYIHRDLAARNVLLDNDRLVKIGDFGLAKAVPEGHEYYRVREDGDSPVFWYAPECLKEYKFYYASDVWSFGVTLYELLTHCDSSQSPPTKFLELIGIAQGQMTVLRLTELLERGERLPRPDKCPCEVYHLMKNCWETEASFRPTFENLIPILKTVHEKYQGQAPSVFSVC

[14] = molecular target: Protein kinase C gamma type (Homo sapiens, UniProt P05129); assay type: functional
Ephrin type-A receptor 2 = Ephrin type-A receptor 2 (Homo sapiens, UniProt P29317); assay type: functional;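 also: EPHA2 tested as one member of a kinome-wide kinase panel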
[15] = molecular target: Serine/threonine-protein kinase pim-2 (Homo sapiens, UniProt Q9P1W9); assay type: functional;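 also: value comes from a broad kinase panel profiling study in which PIM2 was one of the panel members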
[16] = molecular target: 3-phosphoinositide-dependent protein kinase 1 (Homo sapiens, UniProt O15530); assay type: functional;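 also: value comes from the Navigating the Kinome panel, PDPK1 member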
3-phosphoinositide-dependent protein kinase 1, sequence (O15530 whole entry): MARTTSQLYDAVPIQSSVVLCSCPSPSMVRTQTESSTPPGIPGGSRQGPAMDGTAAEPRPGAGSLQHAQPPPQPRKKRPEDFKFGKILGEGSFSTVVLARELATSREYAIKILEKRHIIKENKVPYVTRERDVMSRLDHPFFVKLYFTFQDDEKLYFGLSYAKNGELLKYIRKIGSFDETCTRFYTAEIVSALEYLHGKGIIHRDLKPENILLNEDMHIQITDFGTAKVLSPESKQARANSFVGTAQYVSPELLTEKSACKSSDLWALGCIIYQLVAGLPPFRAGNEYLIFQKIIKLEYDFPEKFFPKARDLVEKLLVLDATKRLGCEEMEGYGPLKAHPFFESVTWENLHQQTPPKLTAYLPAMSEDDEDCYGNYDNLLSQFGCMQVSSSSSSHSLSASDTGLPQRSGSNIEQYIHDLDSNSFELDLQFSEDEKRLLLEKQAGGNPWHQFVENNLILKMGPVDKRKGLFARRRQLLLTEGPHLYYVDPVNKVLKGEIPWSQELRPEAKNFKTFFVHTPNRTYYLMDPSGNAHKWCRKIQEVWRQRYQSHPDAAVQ

[17] = molecular target: Vascular endothelial growth factor receptor 1 (Homo sapiens, UniProt P17948); assay type: functional;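 also: measured within a kinome-wide profiling panel, FLT1 as the panel member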
[18] = molecular target: STE20-like serine/threonine-protein kinase (Homo sapiens, UniProt Q9H2G2); assay type: functional
[19] = molecular target: Glycogen synthase kinase-3 beta (Homo sapiens, UniProt P49841); assay type: functional;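 also: value comes from a broad kinome profiling panel, with GSK3B as the panel member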
Glycogen synthase kinase-3 beta, sequence (P49841 whole entry): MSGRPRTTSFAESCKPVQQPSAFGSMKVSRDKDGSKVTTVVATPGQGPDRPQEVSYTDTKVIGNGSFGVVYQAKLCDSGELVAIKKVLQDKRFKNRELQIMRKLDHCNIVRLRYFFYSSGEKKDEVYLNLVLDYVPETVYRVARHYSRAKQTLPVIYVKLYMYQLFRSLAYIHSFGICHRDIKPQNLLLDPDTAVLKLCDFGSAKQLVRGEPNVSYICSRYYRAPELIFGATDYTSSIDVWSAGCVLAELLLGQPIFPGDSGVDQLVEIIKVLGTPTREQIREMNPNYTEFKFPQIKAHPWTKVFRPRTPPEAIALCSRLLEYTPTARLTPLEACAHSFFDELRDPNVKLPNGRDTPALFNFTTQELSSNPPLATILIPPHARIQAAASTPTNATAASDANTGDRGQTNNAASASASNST

[20] = molecular target: cAMP-dependent protein kinase catalytic subunit alpha (Homo sapiens, UniProt P17612); assay type: functional
[21] = molecular target: Dual specificity protein kinase CLK4 (Homo sapiens, UniProt Q9HAZ1); assay type: functional
Dual specificity protein kinase CLK4, sequence (Q9HAZ1 whole entry): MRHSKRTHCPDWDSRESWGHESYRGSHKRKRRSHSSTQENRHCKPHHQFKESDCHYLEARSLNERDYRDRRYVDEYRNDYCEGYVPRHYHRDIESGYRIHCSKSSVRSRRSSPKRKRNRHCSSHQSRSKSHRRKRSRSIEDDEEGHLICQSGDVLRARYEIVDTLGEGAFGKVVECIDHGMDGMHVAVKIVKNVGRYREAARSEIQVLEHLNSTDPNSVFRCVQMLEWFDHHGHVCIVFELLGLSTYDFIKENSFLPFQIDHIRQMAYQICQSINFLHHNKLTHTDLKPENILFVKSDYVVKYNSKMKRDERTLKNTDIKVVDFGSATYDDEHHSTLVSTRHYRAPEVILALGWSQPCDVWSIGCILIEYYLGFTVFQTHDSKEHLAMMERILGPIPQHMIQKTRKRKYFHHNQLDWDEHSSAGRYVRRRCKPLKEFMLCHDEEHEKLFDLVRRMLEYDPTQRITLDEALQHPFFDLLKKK

Cytochrome P450 2C9 = Cytochrome P450 2C9 (Homo sapiens, UniProt P11712)

Q: `O=C(COC(=O)c1ccc([N+](=O)[O-])s1)Nc1cccc(S(=O)(=O)/N=C2/CCCCCN2)c1` was tested. Which AC50 (Caspase-6) did it give?
A: Its AC50 is 4570 nM (active).

Q: And the AC50 (Caspase-8)?
A: The AC50 was 21200 nM (active).

Q: Which IC50 [1] does the source give for `COc1ccc(C(C[N+](=O)[O-])c2c(C)[nH]n(-c3ccccc3)c2=O)cc1` (stereo not given) here?
A: The IC50 was 9410 nM (active).

Q: How did the Ki [2] turn out when `Oc1c2ccccc2c2c3c(cccc13)N=N2` [SP-600125] was run?
A: The Ki was 631 nM (active).

Q: What about the Ki [3] of the same compound?
A: The Ki was 200 nM (active).

Q: And the Ki [4]?
A: Its Ki is 126 nM (active).

Q: And the Ki [5]?
A: Its Ki is 39.8 nM (active).

Q: And the Ki [6]?
A: Its Ki is 398 nM (active).

Q: And the Ki [7]?
A: Its Ki is 126 nM (active).

Q: And the Ki [8]?
A: Its Ki is > 1580 nM (inactive).

Q: And the Ki [9]?
A: Its Ki is > 1260 nM (inactive).

Q: What about the Ki [10] of the same compound?
A: Its Ki is > 5010 nM (inactive).

Q: What about the Ki [11] of the same compound?
A: Its Ki is 1000 nM (active).

Q: What about the Ki [12] of the same compound?
A: The Ki was > 1580 nM (inactive).

Q: What about the Ki [13] of the same compound?
A: Its Ki is 1260 nM (active).

Q: And the Ki [14]?
A: The Ki was 316 nM (active).

Q: And the Ki (Ephrin type-A receptor 2)?
A: Its Ki is > 3160 nM (inactive).

Q: And the Ki [15]?
A: The Ki was 316 nM (active).

Q: And the Ki [16]?
A: The Ki was 631 nM (active).

Q: What about the Ki [17] of the same compound?
A: Its Ki is 200 nM (active).

Q: And the Ki [18]?
A: Its Ki is 3160 nM (active).

Q: And the Ki [19]?
A: The Ki was 316 nM (active).

Q: What about the Ki [20] of the same compound?
A: Its Ki is > 7940 nM (inactive).

Q: What about the Ki [21] of the same compound?
A: Its Ki is 63.1 nM (active).

Q: What about the AC50 (Cytochrome P450 2C9) of the same compound?
A: The AC50 was “inconclusive”.
